Experimental data as given in US12128062B2, “Methods for targeting pain directed at metabolic pathways” (UNIVERSITY OF MARYLAND, BALTIMORE, priority 2018, dated 2024).

Legend:
[1] = test system: L4-6 DRG cultures (sensory neurons); experiment: Extracellular flux analysis (Seahorse XFp): glutamine oxidation-dependent oxygen consumption rate of dissociated L4-6 DRG cultures from IT-treated mice; format: cell-based, mouse; conditions: glutamine 2 mM; for increase in oxygen consumption rate (OCR) in response to glutamine addition: DRG cultures from mice given 1 μg IT one day earlier, baseline OCR subtracted; for time over which the glutamine-induced OCR increase lasts: DRG cultures from mice given 1 μg IT
Experimental: (§1) In this experiment, mice were injected with 1 μg of teRNA or teRNAmm intrathecally (IT). The next day L4-6 DRGs were dissected and acutely dissociated for extracellular flux analysis. One day post teRNA and teRNA mm injection L4-6 DRGs were dissected and proteins were extracted for western blot analysis. In an independent experiment, mice received plantar incision and were allowed to recover. On day 10 baseline measurements were performed, which was followed by intraplantar injection of PGE2. Allodynia testing was preformed form on days 14, 15, 21 and 24. Intrathecal teRNA or teRNAmm (1 μg) were injected on day 14 following the allodynia testing.
In this experiment, L4-6 DRGs were dissected form naïve, teRNAmm and teRNA treated mice. Lumbar 4-6 DRGs were placed in Hank's Buffered Salt Solution (HBSS, Thermo Fisher, Cat #14170112) on ice. The ganglia were dissociated enzymatically with collagenase A (1 mg/ml, 25 min, Millipore Sigma, Cat #10103578001) and collagenase D (1 mg/ml, Millipore Sigma, Cat #11088858001) with papain (30 U/ml, Millipore Sigma, Cat #10108014001) for 20 min at 37° C. To eliminate debris and large diameter sensory neurons, 70 μm (Thermo Fisher, Cat #087712) cell strainers were used. The dissociated cells were resuspended in DMEM/F12 (Thermo Fisher, Cat #10565042) containing 1× pen-strep (Thermo Fisher, Cat #15070063) and 10% fetal bovine serum (Millipore Sigma, Cat #F2442). The cells were plated in Seahorse XFp Cell Culture Miniplate (Agilent, Cat #103025-100). These cultures were incubated overnight at 37° C. in a humidified 95% air/5% CO2 incubator. The metabolic changes were characterized by analyzing the glycolysis and oxidative phosphorylation rates of sensory neurons using extracellular flux analyzer, Seahorse XFp (Agilent). Dissociated L4-6 primary afferents were incubated in DMEM (Millipore Sigma, Cat #D5030) without glutamine, pyruvate or glucose, Baseline oxygen consumption rate (OCR) measurements were followed by the addition of glutamine (2 mM). The baseline OCR values were subtracted from each of the other values to determine glutamine oxidation-dependent OCR.

[2] = Bortezomib-induced CIPN (neuropathic pain) mouse model, tactile thresholds / allodynia; format: in vivo
Experimental: teRNA was administered to mice which have developed neuropathic pain due to bortezomib treatment. In this experiment, mice were treated with intraperitoneal 0.2 mg/kg of bortezomib (Millipore Sigma, Cat #5.04314.0001) for 5 consecutive days for a total dose of 1 mg/kg. The vehicle group received intraperitoneal saline for 5 consecutive days. The mice that receive bortezomib develop profound allodynia. The efficacy of teRNA for treating and preventing the development of bortezomib-induced neuropathic pain was explored.
Treatment with bortezomib (bort) from day 0-4 (black arrow) led to the development of severe neuropathic pain. Baseline thresholds were measured on day 0 and allodynia was tested on days 14, 15, 17 and 21.
In a second experiment, mice were treated with either saline or bortezomib on days 0-4 (intraperitoneal 0.2 mg/kg of bortezomib for 5 consecutive days for a total dose of 1 mg/kg). On day 7 mice that received bortezomib developed profound neuropathic pain.
To determine if teRNA can prevent the development of chemotherapy-induced neuropathic pain, mice were co-treated with IT teRNA (days 0, 2 and 4) and intraperitoneal (IP) bortezomib (days 0-4) (intraperitoneal 0.2 mg/kg of bortezomib for 5 consecutive days for a total dose of 1 mg/kg).

[3] = Hyperalgesic priming model (plantar incision then intraplantar PGE2), tactile thresholds by von Frey filaments; format: in vivo, mouse
Source text: The hyperalgesic priming model was utilized in the experiments because it is well-characterized and used to study the neuroplasticity underlying persistent pain sensitization and the transition of acute pain to chronic pain [13-17]. As shown at the top FIG. 2, the model is comprised of three phases. 1) The acute phase, also called the induction phase, causes transient tactile hypersensitivity in response to various pro-nociceptive compounds and resolves within a week. The hindpaw plantar incision model was used for the acute phase, which comprises incision of the skin, the underlying fascia, and the plantar flexor digitorum brevis muscle as the initial injury. This model was selected since it lacks injury to major peripheral nerves and typically resolves within a week. 2) The primed phase follows the acute phase. The animals are not hypersensitive and this phase can last for at least 3 weeks.
In this experiment, mice received plantar incision and their tactile thresholds were determined using von Frey filaments. Mice were placed in small cages with a mesh floor individually. Calibrated monofilaments of differing forces are applied perpendicularly to the hind paw. Withdraws, licking or flinching of the paw in response to the filament is considered a positive response. The results are provided in FIG. 2A where “Threshold (grams)” on the y-axis represents the amount of force required for the mice to withdraw the hindpaw before (baseline, BL) and after the incision. Reduced withdrawal threshold indicates increased pain.
In this experiment, the same mice used in the acute phase were allowed to recover and on Day 10 received intraplantar PGE2. The results are provided in FIG. 2B where “Threshold (grams)” on the y-axis represents the amount of force required for the mice to withdraw their hindpaw which is an indication of tactile hypersensitivity and pain. […] 1, 2, 3 and 4 days post-PGE2 injection, *** P<0.001. […] PGE2 injection caused profound allodynia in mice that had plantar incision.
as §1, with “testing. […]” for “testing.”

ASCT2 = experiment: Western blot of ASCT2 protein in L4-6 DRGs after intrathecal injection; format: in vivo, mouse; conditions: IT 1 μg, DRGs dissected 24 hrs post injection; versus teRNAmm control
Experimental: Western blot (WB) analyses were performed to examine changes in metabolic genes that are known to regulate pyruvate and glutamine oxidation. In these experiments, lumbar 4-6 dorsal root ganglia (L4-6 DRGs) which innervate the hindpaw were dissected on Day 1, 9 and 14 post-plantar incisions (as described above). Protein was extracted from the L4-6 DRGs in lysis buffer (50 mM Tris HCl, 1% Triton X-100, 150 mM NaCl, and 1 mM EDTA at pH 7.4) containing protease and phosphatase inhibitor mixtures with an ultrasonicator on ice, and cleared of cellular debris by centrifugation at 14,000 relative centrifugal force for 15 min at 4° C. Fifteen micrograms of protein per well were loaded and separated by standard 7.5% or 10% SDS-PAGE. Proteins were transferred to Immobilon-P membranes (Millipore Sigma, Cat #IPVH00010) and then blocked with 5% dry milk for 3 h at room temperature. The blots were incubated with primary antibody overnight at 4° C. and detected the following day with donkey anti-rabbit or goat anti-mouse antibody conjugated to horseradish peroxidase (1:10,000, Jackson Immunoresearch, Cat #711-036-152, Cat #115-036-062). Signal was detected by enhanced chemiluminescence on films. For assessment of phospho-proteins, membranes were stripped and reprobed for total-protein of interest for normalization. Densitometric analyses were done using UN-SCAN-IT 7.1 software (Silk Scientific Corp.). […]

[4] = IT 1 μg on days 7, 9 and 11, bortezomib IP 0.2 mg/kg days 0-4
[5] = single IT 1 μg on day 14, bortezomib IP 0.2 mg/kg days 0-4
[6] = single IT 1 μg, 14 days post plantar incision (4 days post PGE2)

For “5′-CAUACUACGCCGUAGC-3′ (2'-O-methyl modifications, further chemistry not given here) [teRNAmm, reference compound]”, which “increase in oxygen consumption rate (OCR) in response to glutamine addition” value [1] is on record?
Its value is 10%.

What about the “time over which the glutamine-induced OCR increase lasts” value [1] of the same substance?
The value was no more than 30 min.

What about the “effect on existing bortezomib-induced neuropathic pain, repeated treatment” value [2, 4] of the same substance?
The value was “did not impact the bortezomib-induced neuropathic pain”.

What about the “effect on bortezomib-induced neuropathic pain / tactile thresholds, single treatment” value [2, 5] of the same substance?
The value was “did not impact the tactile thresholds”.

What about the “effect on tactile hypersensitivity / tactile thresholds, incision group” value [3, 6] of the same substance?
The value was “did not display any change in their tactile thresholds”.

For “5′-CAUAGAUCCGGGAUGC-3′ (2'-O-methyl modifications, further chemistry not given here) [teRNA]”, which “increase in oxygen consumption rate (OCR) in response to glutamine addition” value [1] is on record?
Its value is “around 20%”.

And the “time over which the glutamine-induced OCR increase lasts” value [1]?
The value was “at least 30 mins”.

And the “duration of pain relief, repeated treatment” value [2, 4]?
The value was “at least 2 weeks”.

And the “effect on existing bortezomib-induced neuropathic pain, repeated treatment” value [2, 4]?
The value was “prolonged pain relief”.

What about the “prevention of development of bortezomib-induced neuropathic pain, co-treatment” value ([2]; IT on days 0, 2 and 4 with IP bortezomib 0.2 mg/kg days 0-4) of the same substance?
The value was “prevented the development of bortezomib-induced neuropathic pain”.

And the “time post the initiation of bortezomib treatment up to which existing neuropathic pain was alleviated” value ([2]; IT on days 7, 9 and 11, bortezomib days 0-4)?
Its value is “at least 21 days”.

And the “duration of alleviation of bortezomib-induced neuropathic pain, single treatment” value [2, 5]?
Its value is “several days”.

What about the “effect on bortezomib-induced neuropathic pain / tactile thresholds, single treatment” value [2, 5] of the same substance?
The value was “reversed the bortezomib-induced neuropathic pain”.

What about the “effect on tactile thresholds of the control group (no incision)” value ([3]; single IT 1 μg on day 14) of the same substance?
Its value is “did not affect the tactile thresholds”.

And the “duration of alleviation of tactile hypersensitivity, incision group” value [3, 6]?
The value was “at least 7 days”.

What about the “effect on tactile hypersensitivity / tactile thresholds, incision group” value [3, 6] of the same substance?
The value was “alleviated tactile hypersensitivity”.

And the “ASCT2 protein in L4-6 DRGs” value (ASCT2)?
The value was “robust increase”.
